≈ marks a conversion by molar mass, not a printed value. Structures can show the parent of a compound that is named as a salt. Where two headings read alike, the source gives them in different places. Bounds are passed on as bounds.

Consider nine molecules from patent US20140234420A1, “Method of Treating Skin Disorders using Nanoscale Delivery Devices and Transdermal Enhancing Compositions” (priority 2008, published 2014).

The conditions of data set [1]: cited from earlier work.
The nature of data set [2]: Size, polydispersity index and zeta potential determination (Malvern Zetasizer). The format is physicochemical. The procedure: Nanoparticles (2 mg) and micelles (2 mg) were dispersed in 2 ml of purified water and bath sonicated for 1 min. They were then centrifuged at 10000 rpm for 5 min and diluted 50 times with distilled water. About 50 μl of the nanoemulsion was taken and dilated to 1 mL using distilled water. A liposome dispersion was diluted 100 times using purified water and probe sonicated for 1 min using 20% amplitude. The sizes, polydispersity indexes, and zeta potentials, were measured with a Malvern Zetasizer.
Nanoparticles (2 mg) were dispersed in 1 ml of purified water and probe sonicated for 1 min using 20% amplitude. Subsequently, the sonicated particles were diluted 10 times with distilled water and properties were measured using a Malvern Zetasizer. […]
Size, polydispersity index and zeta potential determination: nanoparticles (50 μl), nanoemulsions (squalene) (50 μl) and nanomicelles (2 mg) were dispersed in 2 ml of purified water separately, vortex for 1 min. Further, the size, polydispersity index and zeta potential were measured with a Malvern Zetasizer.

The nature of data set [3]: Encapsulation (entrapment) efficiency. The class given is physicochemical. The settings on record: for % EE: drug encapsulated in zein/lecithin/squalene nanoemulsions. As for the experimental part: Detection wavelength: 340 nm; Injection volume: 50 μl: Run time: 10 min. […] The resulting solution was centrifuged at 5000 rpm for 5 min. […] The resulting solution was centrifuged 5000 rpm for 5 min. […] In vitro release of MTX from the formulations in phosphate buffer (pH 7.4) was studied using UV-spectrophotometry. […] Benzoyl peroxide content was measured using HPLC.

For data set [4] the following is noted: cited from earlier work. This is another data set of the same source.
In the next data set the test system is scleroderma patients. The following applies: one course of systemic treatment (MTX 15-25 mg/weekly for 6 months); cited from earlier work.
For data set [5] the following is noted: hamster ear in vitro, 24 hrs treatment.
Source text: The excised hamster ear was placed on the Franz diffusion cell by exposing ventral surface towards the donor compartment.
The conditions of data set [6]: sebum flux from citrate-phosphate buffer (pH 5.5), 37° C.
Procedure: The supporting membrane (polycarbonate membrane, pore size of 0.4 μm) of each insert was loaded with 2.5±0.2 mg of the artificial sebum. […] The study was carried out in an incubator at 125 rpm under 37° C. The complete receptor medium was replaced with fresh medium at predetermined intervals, i.e., 10, 20, 30, 40, 50, 60, 75, 90, 120 and 180 minutes after treatment. […] The cumulative quantity of drug in the receiver compartment was plotted as a function of time. The flux value for a given experiment was obtained from the linear slope (steady-state portion) of the cumulative amount of drug permeated versus time curve.
A short description of data set [7]: Dispersibility in aqueous solution. The class given is physicochemical.
Data set [8] is described as follows: Stability (half-life) of retinol, free and encapsulated. The format is physicochemical. From the text: Encapsulation of retinol into the zein nanoparticles and micelles improved the stability of retinol by 2 to 5 fold (see Table 5).
The mark [9] stands for this setting: drug encapsulated in zein/lecithin/squalene nanoemulsions.
Where [10] appears, read: molecules encapsulated in nanoemulsions (Table 23).
Setting [11] is: compound encapsulated in zein micelles.
[12] abbreviates: compound encapsulated in zein core-shell particles.

The Log P is a log measure of how a compound divides between an organic and an aqueous phase. With `O=C(OOC(=O)c1ccccc1)c1ccccc1` [Benzoyl peroxide, Benzoyl Peroxide], in [1], the “Solubility in ether and chloroform” value is listed as “Soluble”; the Solubility in water result was “insoluble”. Further, the Particle Size in [2] (setting [9]) is listed as 208.5 ± 6.7 nm. Besides, the “% EE” value in [3] was 83.66 ± 3.81%. Also, the “Log P” value in data set [4] (setting [10]) is listed as 3.48.

`COc1cc(/C=C/C(=O)CC(=O)/C=C/c2ccc(O)c(OC)c2)ccc1O` [Curcumin]: in [2] (setting [11]), the PI is 0.25 ± 0.03 and the “Particle Size” value came to 124 ± 4 nm. The “Encapsulation Efficiency” value in data set [3] (setting [11]) is recorded as 95 ± 4%.

In the case of `COc1cccc2c1C(=O)c1c(O)c3c(c(O)c1C2=O)C[C@@](O)(C(=O)CO)C[C@@H]3O[C@H]1C[C@H](N)[C@H](O)[C@H](C)O1` [Doxorubicin-HCl], the “Particle Size” value in [2] (setting [12]) is recorded as 171 ± 45 nm. For the same molecule, the “Encapsulation Efficiency” value in data set [3] (setting [12]) stood at 61 ± 16%. Also, in data set [4] (compounds encapsulated in zein core-shell particles (Table 1)), the “Log P” value is listed as −0.5.

Turning to `COc1cccc2c1C(=O)c1c(O)c3c(c(O)c1C2=O)C[C@@](O)(C(=O)CO)C[C@@H]3O[C@H]1C[C@H](N)[C@H](O)[C@H](C)O1` [Doxorubicin], in [2] (setting [11]), the PI is 0.18 ± 0.06 and the “Particle Size” value is listed as 153 ± 3 nm. Further, in data set [3] (setting [11]), the “Encapsulation Efficiency” value turned out to be 92 ± 6%.

With `CN(Cc1cnc2nc(N)nc(N)c2n1)c1ccc(C(=O)N[C@@H](CCC(=O)O)C(=O)O)cc1` [Methotrexate], in data set [1] (at 19° C.), the Solubility in water is less than 0.1 g/100 ml. Besides, the “Solubility in DMSO” value in data set [1] was 100 mM (≈ 45.4 mg/mL). Moreover, the Particle Size in [2] (setting [9]) turned out to be 214.3 ± 8.4 nm. The “Patients who reached a remission status” value with scleroderma patients is 51%. In addition, the “% EE” value in data set [3] is 87.60 ± 2.1%. The “Log P” value in data set [4] and in data set [4] (setting [10]) was −1.8 in each case.

For the molecule `CCN(CC)c1ccc2nc3c4ccccc4c(=O)cc-3oc2c1` [Nile Red], in data set [2] (setting [11]), the PI came to 0.21 ± 0.08 and the “Particle Size” value worked out at 165 ± 7 nm. Moreover, the “Encapsulation Efficiency” value in data set [3] (setting [11]) stood at 77 ± 11%. In addition, in [4] (compounds encapsulated in zein micelles (Table 2)), the “Log P” value is recorded as 5.

With `CC1=C(/C=C/C(C)=C/C=C/C(C)=C/C(=O)O)C(C)(C)CCC1` [Retinoic acid Solution], in data set [5], the “% Applied dose in Cartilage” value worked out at 2.409%, the “% Applied dose in Dermis” value worked out at 1.444%, the “% Applied dose in Dorsal” value amounted to 4.713% and the “% Applied dose in Sebaceous gland” value is listed as 0.06619%. For the same molecule, the “% Applied dose in SC” value in [5] (100 μg retinoic acid) amounted to 1.692%.

Regarding `CC1=C(/C=C/C(C)=C/C=C/C(C)=C/C(=O)O)C(C)(C)CCC1` [Retinoic acid], in data set [1], the Solubility in fat result is listed as “soluble” and the Solubility in water entry is reported as “nearly insoluble”. The molecule further showed a Flux in data set [6] of 0.154 ± 0.003 μg/cm^2/min. Also, the Particle Size in data set [2] (setting [9]) amounted to 152 ± 3.6 nm. Besides, the “Log P” value in data set [4] (setting [10]) is listed as 6.83.

The half-life is how long it takes for the measured level to halve. Turning to `CC1=C(/C=C/C(C)=C/C=C/C(C)=C/CO)C(C)(C)CCC1` [Retinol], the Solubility in fat result in data set [1] was “soluble”. The Solubility in water entry in data set [1] is on record as “nearly insoluble”. The molecule further yielded a PI in data set [2] (setting [11]) of 0.27 ± 0.06. Further, the “Particle Size” value in [2] (setting [11]) came out at 191 ± 6 nm. In addition, in data set [3] (setting [11]), the “Encapsulation Efficiency” value is 83 ± 3.1%. Further, in [7], the “Dispersibility in aqueous solution / water” value is “not dispersible in water”. Moreover, the half-life was 20.8 ± 2.1 h in [8] (liquid state, Dark); 16.1 ± 1.9 h in [8] (liquid state, Light); 63 ± 2.7 h in data set [8] (solid state, Dark); 52.8 ± 3.5 h in data set [8] (solid state, Light).
